16 substances from patent US10011649B2 (priority 2013, dated 2018) can be followed below.

For assay [1], the system named is UV inactivated Influenza A PR/8/1934 H1N1. It counts as binding.
Assay [2] deals with UV inactivated Influenza A PR8/1934. It counts as binding.
The test system of assay [3] is A/PR/8/34 H1N1 infected Madin-Darby Canine Kidney (MDCK) cells. Kind of assay: Cytopathic effect assay (XTT), virus induced cell death. Format: cell-based. The following applies: read-out: IC50, inhibition of virus induced cell death. From the text: The illustrated examples support the finding that synbodies inhibit the cytopathic effect of influenza on MDCK cells. Influenza binding peptides were conjugated to a bivalent scaffold (Sc1, as best shown in FIG. 2A) and screened for viral inhibition in an in vitro inhibition assay with A/PR/8/34 H1N1 infected Madin-Darby Canine Kidney (MDCK) cells.
In general terms: Cytopathic effects are the visible damage that an infection or toxin causes in cultured cells.

Assay [4] concerns hemagglutination of A/PR/8/34.
In assay [5] the target is T1, NP in A/PR/8/34 H1N1 viral lysate (Influenza A virus, UniProt P03466).
T1 construct: from tissue; host or cells: A/PR/8/34 H1N1 viral lysate
T1 sequence (P03466 whole entry): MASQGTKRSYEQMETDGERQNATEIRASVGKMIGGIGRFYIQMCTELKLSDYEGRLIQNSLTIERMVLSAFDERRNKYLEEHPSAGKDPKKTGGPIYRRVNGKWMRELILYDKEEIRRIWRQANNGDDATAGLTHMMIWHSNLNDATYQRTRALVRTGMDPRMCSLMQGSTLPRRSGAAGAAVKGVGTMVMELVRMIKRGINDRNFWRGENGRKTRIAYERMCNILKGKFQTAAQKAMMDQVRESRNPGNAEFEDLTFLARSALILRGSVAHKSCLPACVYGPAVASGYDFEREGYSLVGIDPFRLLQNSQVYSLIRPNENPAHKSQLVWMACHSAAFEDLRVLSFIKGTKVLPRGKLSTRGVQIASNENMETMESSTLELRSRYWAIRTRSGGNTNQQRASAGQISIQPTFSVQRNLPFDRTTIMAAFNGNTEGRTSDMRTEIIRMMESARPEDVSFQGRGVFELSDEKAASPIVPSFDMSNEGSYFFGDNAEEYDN
It counts as binding.

For assay [6], the system named is NP in A/Sydney/5/1997 H3N2 viral lysate. It counts as binding.

Numbered stars: 1 amine (or outer) side, 2 acyl side, 3 side chain; on linkers, the order of the positions; unused ones are H or OH. Bridge positions count the residues as written; N and C are the ends. Square brackets hold non-standard residues; d marks the D form. Ends that are not written are not given here. I, II: the chains in the order shown. * marks the point of attachment. ξ: configuration not given here. Succinimide(1-C2H4CO,3-yl) = O=C1CC([*:1])C(=O)N1CCC(=O)[*:2]; X4 = O=C(O)CC[C@H](NC(=O)CCN1C(=O)CC([*:1])C1=O)C(=O)[*:2]; X2 = O=C(O)CCC(NC(=O)CCN1C(=O)CC([*:2])C1=O)C(=O)[*:1]; Biotin = O=C1N[C@H]2[C@H](CS[C@H]2CCCCC(=O)*)N1; X3 = O=C1CC([*:2])C(=O)N1CCC(=O)[*:1]; X1 = O=C1NC2CSC(CCCCC(=O)*)C2N1; scaffold‑1 = not defined here; Pra = C#CC[C@H](N)C(=O)O; ξE = NC(CCC(=O)O)C(=O)O; AEEA = NCCOCCOCC(=O)O; ξK = NCCCCC(N)C(=O)O; ξS = NC(CO)C(=O)O

On to “CSGrMYpYrPFQGNHIYrKK (CSG[dR]MYPY[dR]PFQGNHIY[dR]KK; not fully specified (residue 7); printed as CSGrMYpYrPFQGNHIYrKK) [opt10]”, for which, in assay [1], the “fold improvement of optimized peptide over identified lead peptide” value is listed as “approximately 1000 fold”.
In general, IC50 refers to the concentration at which inhibition is half-maximal. Consider “I: CSGDMYEYNPFQGNHIYNKK-NH2 / II: CSGDMYEYNPFQGNHIYNKK-NH2 / III: EKGSKSGK(Biotin)[Pra]-NH2 (linker I:1-III:2 via X4; linker II:1-III:N via Succinimide(1-C2H4CO,3-yl); C-terminus assumed) [P5-P5-Sc1]”, for which, in assay [2], the “Fold Change versus WT Synbody” value stood at 1 fold. In addition, the IC50 in assay [3] is about 2500 nM.
“I: [ξE][ξK]G[ξS]G[ξS]G[AEEA][ξK](X1)IDKMPFETHRLGPGRFDGSG-NH2 / II: CSGDMYEYNPFQGNHIYNKK-NH2 / III: CSGDMYEYNPFQGNHIYNKK-NH2 (linker I:2-II:1 via X2; linker I:N-III:1 via X3) [P5-P5-Sc2]”: the inhibition of hemagglutination result in assay [4] is on record as “did not inhibit hemagglutination”. Further, the “pull-down of NP from lysate” value in assay [5] and in assay [6] was “pulled-down NP from both lysates” in each case. In addition, the IC50 in the assay on A/CA/7/2009 H1N1 and with A/Sydney/5/1997 H3N2 was 2500 nM each time.
In the case of “opt1-opt1: homo-bivalent synbody SEQ ID NO: 2-2 on scaffold-1 (chain 1 CSGDMYRYNPFQGNHIYNKK; chain 2 CSGDMYRYNPFQGNHIYNKK; linker (positions not given here) via scaffold‑1; reading uncertain; also: homo-bivalent on scaffold-1, attachment not given here)”, in assay [2], the “Fold Change versus WT Synbody” value amounted to 6 fold.
On to “opt2-opt2: homo-bivalent synbody SEQ ID NO: 3-3 on scaffold-1 (chain 1 CSGRMYEYNPFQGNHIYNKK; chain 2 CSGRMYEYNPFQGNHIYNKK; linker (positions not given here) via scaffold‑1; reading uncertain; also: homo-bivalent on scaffold-1, attachment not given here)”, for which, in assay [2], the “Fold Change versus WT Synbody” value is listed as 3 fold.
On to “opt3-opt3: homo-bivalent synbody SEQ ID NO: 4-4 on scaffold-1 (chain 1 CSGDMYPYNPFQGNHIYNKK; chain 2 CSGDMYPYNPFQGNHIYNKK; linker (positions not given here) via scaffold‑1; reading uncertain; also: homo-bivalent on scaffold-1, attachment not given here)”, for which the “Fold Change versus WT Synbody” value in assay [2] is reported as “n.b”.
“opt4-opt4: homo-bivalent synbody SEQ ID NO: 5-5 on scaffold-1 (chain 1 CSGRMYPYNPFQGNHIYNKK; chain 2 CSGRMYPYNPFQGNHIYNKK; linker (positions not given here) via scaffold‑1; reading uncertain; also: homo-bivalent on scaffold-1, attachment not given here)”: in assay [2], the “Fold Change versus WT Synbody” value is given as 10 fold.
The same measure, in the same setting: to “opt5-opt5: homo-bivalent synbody SEQ ID NO: 6-6 on scaffold-1 (chain 1 CSGRMYRYNPFQGNHIYNKK; chain 2 CSGRMYRYNPFQGNHIYNKK; linker (positions not given here) via scaffold‑1; reading uncertain; also: homo-bivalent on scaffold-1, attachment not given here)” belongs “n.b”; to “opt6-opt6: homo-bivalent synbody SEQ ID NO: 7-7 on scaffold-1 (chain 1 CSGDMYEYNPFQGNHIYRKK; chain 2 CSGDMYEYNPFQGNHIYRKK; linker (positions not given here) via scaffold‑1; reading uncertain; also: homo-bivalent on scaffold-1, attachment not given here)”, 4 fold; to “opt7-opt7: homo-bivalent synbody SEQ ID NO: 8-8 on scaffold-1 (chain 1 CSGRMYPYNPFQGNHIYRKK; chain 2 CSGRMYPYNPFQGNHIYRKK; linker (positions not given here) via scaffold‑1; reading uncertain; also: homo-bivalent on scaffold-1, attachment not given here)”, 45 fold.
On the same count and under the same terms, to “opt8-opt8: homo-bivalent synbody SEQ ID NO: 9-9 on scaffold-1 (chain 1 CSGTMYEYNPFQGNHIYNKK; chain 2 CSGTMYEYNPFQGNHIYNKK; linker (positions not given here) via scaffold‑1; reading uncertain; also: homo-bivalent on scaffold-1, attachment not given here)” belongs 1 fold.
The same measure, in the same setting: with “opt9-opt9: homo-bivalent synbody SEQ ID NO: 10-10 on scaffold-1 (chain 1 CSGRMYPYRPFQGNHIYRKK; chain 2 CSGRMYPYRPFQGNHIYRKK; linker (positions not given here) via scaffold‑1; reading uncertain; also: homo-bivalent on scaffold-1, attachment not given here)” the figure was 1 fold; with “opt11-opt11: homo-bivalent synbody SEQ ID NO: 12-12 on scaffold-1 (chain 1 CSGTMYPYRPFQGNHIYRKK; chain 2 CSGTMYPYRPFQGNHIYRKK; linker (positions not given here) via scaffold‑1; reading uncertain; also: homo-bivalent on scaffold-1, attachment not given here)”, 47 fold; with “opt12-opt12: homo-bivalent synbody SEQ ID NO: 13-13 on scaffold-1 (chain 1 CSGRMYPYRPFQRKHIYRKK; chain 2 CSGRMYPYRPFQRKHIYRKK; linker (positions not given here) via scaffold‑1; reading uncertain; also: homo-bivalent on scaffold-1, attachment not given here)”, “n.b”.
Turning to “opt13-opt13: homo-bivalent synbody SEQ ID NO: 14-14 on scaffold-1 (chain 1 CCSGDRYEYNPFQGKHIYNK; chain 2 CCSGDRYEYNPFQGKHIYNK; linker (positions not given here) via scaffold‑1; reading uncertain; also: homo-bivalent on scaffold-1, attachment not given here)”, the “Fold Change versus WT Synbody” value in assay [2] is reported as “n.b”.
Same read-out and setting: to “opt14-opt14: homo-bivalent synbody SEQ ID NO: 15-15 on scaffold-1 (chain 1 CSGRMYEYNPFQGKHIYRKK; chain 2 CSGRMYEYNPFQGKHIYRKK; linker (positions not given here) via scaffold‑1; reading uncertain; also: homo-bivalent on scaffold-1, attachment not given here)” belongs 107 fold.
